Here are results for three compounds from US20230103142A1, “SMALL MOLECULE REGULATORS OF NOTCH1 AND USES THEREOF” (THE PENN STATE RESEARCH FOUNDATION, priority 2020, published 2023).

Molecules are shown by their SMILES. Residues, ends and D or L forms follow the SMILES beside them. *: point of attachment. Cbz = O=C(OCc1ccccc1)*

The subject of data set [1] is HT1376 cells. Kind of data set: MTT cell viability assay. It counts as cell-based. The protocol: (§1) Cell culture and viability assay. […] Cell lines were maintained in Eagle's Minimum Essential Medium at 37° C. and 5% CO2. […] TCCSUP and HT1376 cells were treated with varying concentrations of ASR488 (0.2-12.5 μM) for 24, 48, and 72 h.
For data set [2], the system named is TCCSUP cells. As to the kind of experiment: MTT cell viability assay. It is filed as cell-based. The protocol:
as §1
Background: Tetrazolium dyes change colour on reduction, which living cells bring about.

The subject of data set [3] is HT1376 cells. Kind of data set: Annexin V-FITC/PI apoptosis flow cytometry. It counts as cell-based. The settings on record: HT1376, 24 h treatment. The protocol:
(§2) Detection of apoptosis by flow cytometry and immunoblotting. Annexin V-fluorescein isothiocyanate (FITC) against propidium iodide (PI) assay (FITC Annexin V Apoptosis Detection Kit I, BD Pharminogen, San Diego, Calif., USA) was used for detecting apoptosis as described previously. Total protein extracts from TCCSUP cells were prepared with the Mammalian Protein Extraction Reagent (Thermo Scientific, Rockford, Ill., USA) according to the manufacturer's instructions. Western blotting was performed using specific antibodies against Cleaved PARP (Cat #5625), BAX (Cat #5023) (Cell signaling Technology), and β-actin (Santa Cruz Biotechnologies, Dallas, Tex., USA). The positive bands were detected using enhanced chemiluminescence.
On the technique in general: In flow cytometry, cells or beads pass a laser one at a time.

Data set [4] concerns TCCSUP cells. As to the kind of experiment: Annexin V-FITC/PI apoptosis flow cytometry. It counts as cell-based. As to conditions: 24 h treatment. The protocol:
as §2

The subject of data set [5] is CPEB1 knockdown TCCSUP cells. Kind of data set: cell death in CPEB1 siRNA knockdown cells. It counts as cell-based. An excerpt: To analyze whether ASR488 treatment can induce p27 mediated cell death in CPEB1 knockdown bladder cancer cells, we knocked down CPEB1 with SiRNA in TCCSUP cells. (FIG. 11A) ASR488 treatment was unable to restore CPEB1 expression in CPEB1 knockdown cells. Moreover, P27 expression corresponded with CPEB1 expression pattern in the Knockdown cells.

The target in the next data set is CPEB1 (Homo sapiens, UniProt Q9BZB8). Kind of data set: scanning fluorimetry with purified CPEB1 protein. It is filed as binding. An excerpt: (FIG. 9B) ASR488 treatment induces p53 independent p27 upregulation in Bladder Cancer cells. (FIG. 9C) The result is GO/G1 cell cycle arrest in ASR488 treated Bladder Cancer Cells. (FIG. 9D) p27 upregulation is due to CPEB1 induction by overexpressing CPEB1 in TCCSUP cells.
CPEB1, sequence (Q9BZB8 whole entry): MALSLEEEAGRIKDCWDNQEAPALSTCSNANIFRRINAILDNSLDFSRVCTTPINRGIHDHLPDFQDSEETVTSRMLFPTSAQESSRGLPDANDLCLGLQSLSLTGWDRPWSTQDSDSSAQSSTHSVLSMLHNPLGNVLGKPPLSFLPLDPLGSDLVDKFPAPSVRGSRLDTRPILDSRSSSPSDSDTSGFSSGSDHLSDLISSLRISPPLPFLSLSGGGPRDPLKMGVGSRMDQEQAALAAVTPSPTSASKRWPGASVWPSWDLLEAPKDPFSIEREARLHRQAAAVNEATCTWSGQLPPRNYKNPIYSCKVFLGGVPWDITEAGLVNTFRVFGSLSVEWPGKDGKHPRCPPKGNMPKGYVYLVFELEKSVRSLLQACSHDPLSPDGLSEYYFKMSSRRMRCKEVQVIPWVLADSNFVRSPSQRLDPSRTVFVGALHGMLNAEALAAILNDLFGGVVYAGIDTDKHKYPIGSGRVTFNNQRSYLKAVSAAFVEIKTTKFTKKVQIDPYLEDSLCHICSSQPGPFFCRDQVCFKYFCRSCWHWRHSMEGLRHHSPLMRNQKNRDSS

For a further data set, the system named is normal BCa cells. Kind of data set: toxicity to normal cells. It is filed as cell-based.
Data set [6] relates to TCCSUP cells. Kind of data set: qRT-PCR of top upregulated genes. As to conditions: vs vehicle (DMSO). It is filed as cell-based. An excerpt: The blue dots represent the genes that are without any significant diversity. […] The sum of the numbers in each large circle are the total number of genes in ASR488-treated or vehicle-treated TCCSUP cells, and the common genes among the samples are represented in the overlapping part.

Data set [7] relates to TCCSUP cells. Kind of data set: RNA-seq differential gene expression analysis. It is filed as cell-based. An excerpt: RNA isolation, cDNA library construction, and DNA sequencing. TCCSUP cells treated with vehicle (DMSO) or ASR488 were subjected to RNA isolation using TRIzol® (Invitrogen; Thermo Fisher Scientific, Inc., Waltham, Mass., USA) according to the manufacturer's protocol. Nano Photometer® spectrophotometer (Implen, Inc., Westlake Village, Calif., USA) was used to measure the RNA concentration and purity of the samples. A cDNA library was then constructed using an NEB Next® Ultra™ RNA Library Prep kit for Illumina® (New England Biolabs, Inc., Ipswich, Mass., USA) by Novogene Bioinformatics Technologies Co. Ltd. (Beijing, China) following the manufacturer's protocols. Subsequently, polymerase chain reaction (PCR) was, Universal PCR primers, and Index (X) Primer for double-stranded cDNA amplification. The PCR products generated for PCR performed using Phusion High Fidelity DNA polymerase were purified using the AMPure XP system, and Agilent Bioanalyzer 2100 system was used to analyze the library quality. The cDNA library was sequenced using an Illumina Hiseq 2000/2500 platform and 100 bp/50 bp single-end reads were generated.
Data Analysis. Bioinformatics analysis was performed using a combination of programs including STAR, HTseq, Cufflink, and our wrapped scripts. Tophat program was used to parse the alignments and DESeq2/edgeR was utilized to ascertain differential expressions. To determine GO and KEGG enrichment Cluster Profiler was used.
For DESeq2 with biological replicates: DESeq2 R package (2_1.6.3) was used to analyze differential expression between the ASR488 treated and control groups (two biological replicates per condition). The p-values obtained from the analysis were adjusted using the Benjamini and Hochberg's approach so that the false discovery rate (FDR) can be controlled. The genes having adjusted p-value <0.05 were assigned as differentially expressed.
For edge R without biological replicates: EdgeR program package (3.16.5) was used to adjust the read counts for each sequenced library before differential gene expression analysis, through one scaling normalized factor. The p-values were adjusted using the Benjamini and Hochberg method. […] The Venn diagrams were prepared using the function Venn diagram in R based on the gene list for different groups.

In data set [8] the test system is Notch 1 activation in MDA-MB-231 TNBC cells. Kind of data set: Western blot of NICD and HES1. It is filed as cell-based. The settings on record: vs vehicle treated controls. (In western blotting, separated proteins are transferred to a membrane and probed.)
A further data set has as its system MDA-MB-231 TNBC cells. Kind of data set: cell viability assay. It is filed as cell-based. The settings on record: 1/20th of IC50 of DOX alone. How it is done: Synergistic effects of combinations were calculated via isobologram analysis.
In a further data set the test system is ubiquitin in ALDH+ cells. Kind of data set: ubiquitin expression. It counts as cell-based.

For orientation: IC50 means the concentration that gives 50% inhibition. The low end stands for greater potency in that assay, the high end for weaker potency in that assay.

Text for ubiquitin in ALDH+ cells: Commercially available positive and negative controls were used for these experiments.

`CC1=C(CO)C(=O)O[C@@H]([C@@H](C)[C@H]2CC[C@H]3[C@@H]4C[C@H]5O[C@]56[C@@H](OC(=O)c5cccs5)C=CC(=O)[C@]6(C)[C@H]4CC[C@]23C)C1` [ASR488]: the half-maximal inhibitory concentration (IC50) with HT1376 cells [1] (HT1376, 24 h) came to 1280 nM; in the data set on HT1376 cells [1] (HT1376, 48 h), 750 nM; in the data set with HT1376 cells [1] (HT1376, 72 h), 850 nM; in the data set with TCCSUP cells [2] (24 h) it was 800 nM; in the data set with TCCSUP cells [2] (48 h), 480 nM; with TCCSUP cells [2] (72 h) it was 450 nM. Besides, the apoptosis with HT1376 cells [3] turned out to be 23.2%; in the data set on TCCSUP cells [4], 30.5%. Moreover, the “cell death in CPEB1 knockdown cells” value in data set [5] is listed as “did not induced cell death”. The “change of Tm of bound CPEB1” value on CPEB1 was found to be 9 °C. In addition, in the data set with normal BCa cells, the “toxicity to normal cells” value was “non-toxic”. Moreover, the “CPEB1 upregulation by qRT-PCR” value in the data set on TCCSUP cells [6] came to 36 fold. For the same compound, the “CYP4F11 upregulation by qRT-PCR” value with TCCSUP cells [6] is 15.8 fold. Also, in the data set with TCCSUP cells [6], the “IL11 upregulation by qRT-PCR” value was determined as 30 fold. Besides, in the data set with TCCSUP cells [6], the “SFN upregulation by qRT-PCR” value is given as 20.12 fold. Further, in the data set with TCCSUP cells [7] (gene ACTG2, treated TCCSUP cells), the “Log2 (fold-change) ACTG2” value was 3.0293. Moreover, the “Log2 (fold-change) BBOX1” value with TCCSUP cells [7] (gene BBOX1, treated TCCSUP cells) is −2.2384. In addition, the “Log2 (fold-change) CMPK2” value with TCCSUP cells [7] (gene CMPK2, treated TCCSUP cells) is −1.8470. The “Log2 (fold-change) CPEB1” value with TCCSUP cells [7] (gene CPEB1, treated TCCSUP cells) was found to be 6.3347. The “Log2 (fold-change) CYP4F11” value with TCCSUP cells [7] (gene CYP4F11, treated TCCSUP cells) is recorded as 8.3568. In addition, the “Log2 (fold-change) DDX60” value with TCCSUP cells [7] (gene DDX60, treated TCCSUP cells) is on record as −2.5069. Further, the “Log2 (fold-change) FOS” value with TCCSUP cells [7] (gene FOS, treated TCCSUP cells) is −1.9465. The “Log2 (fold-change) GBP4” value in the data set with TCCSUP cells [7] (gene GBP4, treated TCCSUP cells) is −2.2704. The “Log2 (fold-change) GNGT2” value in the data set on TCCSUP cells [7] (gene GNGT2, treated TCCSUP cells) is 2.5802. In addition, the “Log2 (fold-change) HSPA6” value in the data set on TCCSUP cells [7] (gene HSPA6, treated TCCSUP cells) came to 3.5985. Further, the “Log2 (fold-change) IFI44L” value in the data set with TCCSUP cells [7] (gene IFI44L, treated TCCSUP cells) was −1.9791. Moreover, the “Log2 (fold-change) IFIT2” value in the data set with TCCSUP cells [7] (gene IFIT2, treated TCCSUP cells) is given as −1.8473. In addition, the “Log2 (fold-change) IL11” value with TCCSUP cells [7] (gene IL11, treated TCCSUP cells) worked out at 2.9265. Also, the “Log2 (fold-change) MAP1A” value in the data set with TCCSUP cells [7] (gene MAP1A, treated TCCSUP cells) is listed as 2.1205. The “Log2 (fold-change) OASL” value in the data set on TCCSUP cells [7] (gene OASL, treated TCCSUP cells) is −1.9737. Besides, the “Log2 (fold-change) RSAD2” value in the data set on TCCSUP cells [7] (gene RSAD2, treated TCCSUP cells) is reported as −2.2235. The “Log2 (fold-change) SFN” value in the data set with TCCSUP cells [7] (gene SFN, treated TCCSUP cells) stood at 3.7239. Further, in the data set on TCCSUP cells [7] (gene SPHK1, treated TCCSUP cells), the “Log2 (fold-change) SPHK1” value came to 4.6389. In addition, the “Log2 (fold-change) STEAP4” value in the data set on TCCSUP cells [7] (gene STEAP4, treated TCCSUP cells) was −1.8141. In the data set on TCCSUP cells [7] (gene TAGLN, treated TCCSUP cells), the “Log2 (fold-change) TAGLN” value amounted to 2.3661.
Consider `COc1cccc2c1C(=O)c1c(O)c3c(c(O)c1C2=O)C[C@@](O)(C(=O)CO)C[C@@H]3O[C@H]1C[C@H](N)[C@H](O)[C@H](C)O1` [DOX, Doxorubicin, reference compound], for which the “Notch 1 activation (NICD and HES 1 levels)” value in data set [8] is “induction of Notch 1 activation”. Also, in the data set on MDA-MB-231 TNBC cells, the growth inhibition alone result was “did not inhibit the growth”.
On to `CC(C)C[C@@H](C=O)NC(=O)[C@H](CC(C)C)NC(=O)[C@H](CC(C)C)NC(=O)OCc1ccccc1` [MG-132, reference compound] (Cbz-Leu-Leu-Leu-aldehyde), for which the ubiquitin expression result in the data set on ubiquitin in ALDH+ cells is listed as “higher level of ubiquitin”.
